Experiments:
MCF7 = test: Antiproliferative activity against human MCF7 cells after 48 hrs by MTT assay; type: functional, cell-based; settings: MCF7, 48 h
HepG2 = test: Antiproliferative activity against human HepG2 cells after 48 hrs by MTT assay; type: functional, cell-based; settings: HepG2, 48 h
HCT-116 = test: Antiproliferative activity against human HCT116 cells after 48 hrs by MTT assay; type: functional, cell-based; settings: HCT-116, 48 h
PANC-1 = test: Antiproliferative activity against human PANC1 cells after 48 hrs by MTT assay; type: functional, cell-based; settings: PANC-1, 48 h
HUVEC = test: Antiproliferative activity against HUVEC after 48 hrs by MTT assay; type: cell-based; settings: Homo sapiens
[1] = Selectivity index, ratio of IC50 for HUVEC to IC50 for human PANC1 cells
[2] = Selectivity index, ratio of IC50 for HUVEC to IC50 for human HCT116 cells
[3] = Selectivity index, ratio of IC50 for HUVEC to IC50 for human HepG2 cells
[4] = Selectivity index, ratio of IC50 for HUVEC to IC50 for human MCF7 cells

| SMILES | IC50 (MCF7) [µM] | IC50 (HepG2) [µM] | IC50 (HCT-116) [µM] | IC50 (PANC-1) [µM] | IC50 (HUVEC) [µM] | Ratio IC50 [1] | Ratio IC50 [2] | Ratio IC50 [3] | Ratio IC50 [4] |
| --- | --- | --- | --- | --- | --- | --- | --- | --- | --- |
| COc1ccc(-c2c(Nc3ccc(C)cc3)c3ccc(O)cc3oc2=O)cc1 | 85.5 | 88.3 | – | – | – | – | – | – | – |
| COc1ccc(-c2c(Nc3ccc(NC(C)=O)cc3)c3ccccc3oc2=O)cc1 | > 100 | > 100 | – | – | – | – | – | – | – |
| COc1ccc(-c2c(Nc3cc(OC)c(OC)c(OC)c3)c3ccc(O)cc3oc2=O)cc1 | 56 | 49.6 | 64.2 | 63.9 | – | – | – | – | – |
| COc1ccc(-c2c(Nc3ccc(C)cc3)c3ccc(OC)cc3oc2=O)cc1 | 66.9 | 74.4 | 82.4 | 76.5 | – | – | – | – | – |
| COc1ccc2oc(=O)c(C(=O)C(F)(F)F)c(Nc3ccc(F)cc3)c2c1 | > 100 | > 100 | – | – | – | – | – | – | – |
| COc1ccc(-c2c(Nc3ccc(C)c(O)c3)c3ccc(O)cc3oc2=O)cc1 | > 100 | > 75.3 | – | – | – | – | – | – | – |
| COc1ccc(-c2c(Nc3ccc(C)cc3)c3ccccc3oc2=O)cc1 | 65.3 | 59.4 | 64.8 | 66.1 | – | – | – | – | – |
| COc1ccc(Nc2c(-c3ccc(OC)cc3)c(=O)oc3cc(OC)ccc23)cc1 | 39.2 | 39.6 | 35.1 | 41 | – | – | – | – | – |
| COc1ccc(-c2c(Nc3cc(OC)c(OC)c(OC)c3)c3ccccc3oc2=O)cc1 | 82.3 | 77.3 | 63.5 | 77.6 | – | – | – | – | – |
| COc1ccc(-c2c(Nc3ccc(NC(C)=O)cc3)c3ccc(O)cc3oc2=O)cc1 | > 100 | > 100 | – | – | – | – | – | – | – |
| COc1ccc(Nc2c(C(=O)C(F)(F)F)c(=O)oc3cc(OC)ccc23)cc1 | 55.7 | 38.4 | 61.2 | 47.5 | – | – | – | – | – |
| COc1ccc(Nc2c(-c3ccc(OC)cc3)c(=O)oc3cc(O)ccc23)cc1 | > 100 | 78.8 | – | – | – | – | – | – | – |

Stronger by IC50 (MCF7), values ahead:

| IC50 (MCF7) [µM] | IC50 (HepG2) [µM] | IC50 (HCT-116) [µM] | IC50 (PANC-1) [µM] | SMILES | IC50 (HUVEC) [µM] | Ratio IC50 [1] | Ratio IC50 [2] | Ratio IC50 [3] | Ratio IC50 [4] |
| --- | --- | --- | --- | --- | --- | --- | --- | --- | --- |
| 37.4 | 10.5 | 12.5 | 15.8 | COc1ccc2c(Nc3ccc4c(c3)OCO4)c(C(=O)C(F)(F)F)c(=O)oc2c1 | – | – | – | – | – |
| 34.4 | 22.5 | 26.5 | 31.3 | COc1ccc(-c2c(Nc3ccc(C)c(O)c3)c3ccc(OC)cc3oc2=O)cc1 | – | – | – | – | – |
| 30.7 | 31.3 | 29.5 | 32.9 | CCOc1ccc(Nc2c(-c3ccc(OC)cc3)c(=O)oc3ccccc23)cc1 | – | – | – | – | – |
| 24.3 | 31.2 | 33 | 36.1 | CCOc1ccc(Nc2c(-c3ccc(OC)cc3)c(=O)oc3cc(OC)ccc23)cc1 | – | – | – | – | – |
| 20.1 | 6.71 | 4.62 | 5.62 | COc1ccc2oc(=O)c(C(=O)C(F)(F)F)c(Nc3ccc(C)c(O)c3)c2c1 | 29.4 | 5.23 | 6.37 | 4.39 | 1.46 |
| 19.2 | 26.4 | 17 | 24.1 | COc1ccc2c(Nc3cc(OC)c(OC)c(OC)c3)c(C(=O)C(F)(F)F)c(=O)oc2c1 | – | – | – | – | – |
| 15 | 12.3 | 19.5 | 23.8 | COc1ccc2oc(=O)c(C(=O)C(F)(F)F)c(Nc3cc(OC)c(OC)c(OC)c3)c2c1 | – | – | – | – | – |
